The values below come from PMC4178217, “Quinoline 3-sulfonamides inhibit lactate dehydrogenase A and reverse aerobic glycolysis in cancer cells” (Cancer & Metabolism, 2013).

Data set [1] has as its system Snu398 cells. Put plainly: Lactate production assay, Snu398 (RapidFire-MS).
For data set [2], the target named is recombinant human LDHB (Homo sapiens, UniProt P07195). Put plainly: recombinant human LDHB enzyme assay (lactate to pyruvate, NADH via diaphorase/resazurin).
Data set [3] concerns Snu398 cells. Put plainly: Compound cellular permeability assay, whole-cell extract. In kind it is in vitro ADME, human. The note with it: Snu398 treated with 1 μM for 1.5 h. As to the method: Compound cellular permeability assays For cytosolic permeability assay, twelve million Snu398 cells were allowed to attach overnight and treated with DMSO control or 1 µM Compound 2 for 1.5 h in 1.7 mM glucose medium. The medium was removed, cells were washed in phosphate-buffered saline (PBS), and cytosolic extracts were prepared by solubilization in Qproteome lysis buffer (Qiagen, Valencia, CA). For whole-cell permeability assay, 75,000 Snu398 cells/well were plated in 96-well plates and treated with DMSO control or 1 µM compounds for 1.5h in low glucose medium. The medium was removed, cells were washed in PBS and solubilized in 50:50 mixture of methanol and acetonitrile. Compound concentration in the cytosolic or whole-cell extract was determined by LC/MS/MS analysis. An Acquity UPLC system (Waters Inc., Milford, MA) was coupled to an API 4000 or API 5000 triple-quad mass spectrometer (Applied Biosystems). […] Compound concentration in cells was determined by counting the number of cells in sample wells and assuming 3 pL/cell volume.

Data set [4] concerns the target recombinant human LDHA (Homo sapiens, UniProt P00338). Put plainly: recombinant human LDHA enzyme assay (lactate to pyruvate, NADH via diaphorase/resazurin). Background: Resazurin is reduced to fluorescent resorufin, in cell work by metabolically active cells.

One may read the EC50 as the concentration at which the effect is half-maximal. The IC50 is the midpoint of a concentration-inhibition curve.

Chain of recombinant human LDHB (P07195 whole entry): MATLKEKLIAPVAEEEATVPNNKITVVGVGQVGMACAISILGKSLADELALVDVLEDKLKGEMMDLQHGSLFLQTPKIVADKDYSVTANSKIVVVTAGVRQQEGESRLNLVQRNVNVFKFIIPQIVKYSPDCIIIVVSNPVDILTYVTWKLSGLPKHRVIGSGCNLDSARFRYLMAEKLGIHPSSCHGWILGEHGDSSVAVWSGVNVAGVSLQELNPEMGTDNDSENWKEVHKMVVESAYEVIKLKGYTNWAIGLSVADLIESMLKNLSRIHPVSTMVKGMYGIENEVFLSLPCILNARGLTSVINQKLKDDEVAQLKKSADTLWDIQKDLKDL

Consider `COc1ncc(-c2ccc3c(Nc4cc(Oc5ccc(F)cc5)cc(S(N)(=O)=O)c4)c(S(=O)(=O)NC4CC4)cnc3c2)c(OC)n1` [Compound 3], for which, in data set [1] (Homo sapiens, SNU-398, read-out: lactate production EC50), the concentration for a half-maximal effect (EC50) was found to be 3.3 ± 1.3 µM. Moreover, the half-inhibitory concentration (IC50) in data set [2] was 55 ± 9 nM. In addition, in data set [3], the “apparent intracellular concentration versus medium” value is “higher apparent intracellular concentrations than that of the medium”.
`COc1cc2c(Nc3cccc(C(=O)O)c3)c(C(N)=O)cnc2cc1-c1c(C)noc1C`: in data set [4], the “mode of LDHA inhibition” value is on record as “NADH-competitive LDHA inhibitor”.
Take `COc1ncc(-c2ccc3c(Nc4cc(Oc5ccc(F)cc5)cc(C(F)(F)F)c4)c(S(=O)(=O)NC4CC4)cnc3c2)c(OC)n1` [Compound 4]: in data set [1] (Snu398), the “effect on cellular lactate production” value is “does not affect cellular lactate”. The IC50 in data set [2] was more than 50000 nM; in data set [4] it was more than 50 µM.
